The source of these data is patent publication US20130267549A1, “Use of Pyrimidylaminobenzamide Derivatives for the Treatment of Fibrosis” (NOVARTIS AG, priority 2009, published 2013).

This test relates to Rat Bleomycin Model. The test is described as follows: Rat bleomycin model of lung fibrosis: histological analysis of interstitial collagen deposition (Picrosirius red stain). The format is in vivo. Conditions: co-administration with bleomycin, relative area and intensity of interstitial collagen (manual score), FIG. 1. As to the method: Appl. Pharmacol. (1992)116:30-7). Another well-established model for lung fibrosis is the rat bleomycin model published by E. White et al, Am J Respir Crit Care Med. 2006, 173: 112-121.
A histological analysis of levels of collagen deposition in the lung interstitium, as determined using Picrosirius red stain, for bleomycin alone as well as combinations of bleomycin and several other compounds, including AMN107, was performed. As depicted in FIG. 1 showing the levels of interstitial collagen in lung tissue as determined histologically using Picrosirius red stain (statistical analysis: Man Whitney rank sum test), co-administration of AMN107 can reduce the effect of bleomycin by more than 50%.

Regarding `Cc1cn(-c2cc(NC(=O)c3ccc(C)c(Nc4nccc(-c5cccnc5)n4)c3)cc(C(F)(F)F)c2)cn1` [AMN107, 4-methyl-3-[[4-(3-pyridinyl)-2-pyrimidinyl]amino]-N-[5-(4-methyl-1H-imidazol-1-yl)-3-(trifluoromethyl)phenyl]benzamide], the “reduction of the effect of bleomycin on levels of interstitial collagen in lung tissue” value is “more than 50%”.
